Laboratory results reported in patent US9255094B2, “Pyrido[4,3-B]indoles and methods of use” (Medivation Technologies, Inc., priority 2009, dated 2016).

Assays:
[1] = target: human recombinant histamine H1 receptor (Homo sapiens, UniProt P35367); test: Histamine H1 radioligand binding assay ([3H]Pyrilamine); settings: compound at 1 μM, receptor expressed in CHO cells
Description: To evaluate in radioligand binding assays the activity of compounds of the invention, human recombinant histamine H1 receptor expressed in Chinese hamster ovary (CHO) cells (De Backer, M. D. et al., Biochem. Biophys. Res. Comm. 197(3):1601, 1993) in a modified Tris-HCl buffer (50 mM Tris-HCl, pH 7.4, 2 mM MgCl2, 100 mM NaCl, 250 mM Sucrose) was used. Compounds of the invention were incubated with 1.2 nM [^3H]Pyrilamine for 180 min at 25° C. Non-specific binding was estimated in the presence of 1 μM pyrilamine Receptor proteins were filtered and washed, the filters were then counted to determine [^3H]Pyrilamine specifically bound. Compounds were screened at 1 μM or lower, using 1% DMSO as vehicle. Biochemical assay results are presented as the percent inhibition of specific binding in Table 2.

[2] = target: T1, human recombinant histamine H2 receptor (Homo sapiens, UniProt P25021); test: Histamine H2 radioligand binding assay ([125I]Aminopotentidine); settings: compound at 1 μM; 0.1 nM [125I]Aminopotentidine; receptor expressed in CHO-K1 cells
T1 construct: expressed in transfected cells; host or cells: Chinese hamster ovary (CHO) K1 cells
T1 sequence (P25021 whole entry): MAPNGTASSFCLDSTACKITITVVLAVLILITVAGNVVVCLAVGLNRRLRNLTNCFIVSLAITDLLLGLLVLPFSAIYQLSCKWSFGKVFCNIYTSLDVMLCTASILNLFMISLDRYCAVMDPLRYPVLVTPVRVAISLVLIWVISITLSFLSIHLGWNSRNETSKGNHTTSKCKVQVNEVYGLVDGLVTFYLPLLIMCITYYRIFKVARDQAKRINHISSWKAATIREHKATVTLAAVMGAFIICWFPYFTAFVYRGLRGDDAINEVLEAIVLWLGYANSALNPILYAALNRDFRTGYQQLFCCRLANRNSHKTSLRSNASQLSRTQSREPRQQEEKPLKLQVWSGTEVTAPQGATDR
Description: To evaluate in radioligand binding assays the activity of compounds of the invention, human recombinant histamine H2 receptor expressed in Chinese hamster ovary (CHO) K1 cells (Ruat, M., Proc. Natl. Acad. Sci. USA. 87(5):1658, 1990) in a 50 mM Phosphate buffer, pH 7.4 was used. Compounds of the invention were incubated with 0.1 nM [^125I]Aminopotentidine for 120 min at 25° C. Non-specific binding was estimated in the presence of 3 μM Tiotidine. Receptor proteins were filtered and washed, the filters were then counted to determine [^125I]Aminopotentidine specifically bound. Compounds were screened at 1 μM or lower, using 1% DMSO as vehicle. Biochemical assay results are presented as the percent inhibition of specific binding in Table 2.

[3] = target: human recombinant dopamine D2L receptor (Homo sapiens, UniProt P14416); test: Dopamine D2L radioligand binding assay ([3H]Spiperone); settings: compound at 1 μM, 0.16 nM [3H]Spiperone, CHO cells, read-out: Percent Inhibition of ligand binding, Dopamine (1μM)
Chain of human recombinant dopamine D2L receptor (P14416 whole entry): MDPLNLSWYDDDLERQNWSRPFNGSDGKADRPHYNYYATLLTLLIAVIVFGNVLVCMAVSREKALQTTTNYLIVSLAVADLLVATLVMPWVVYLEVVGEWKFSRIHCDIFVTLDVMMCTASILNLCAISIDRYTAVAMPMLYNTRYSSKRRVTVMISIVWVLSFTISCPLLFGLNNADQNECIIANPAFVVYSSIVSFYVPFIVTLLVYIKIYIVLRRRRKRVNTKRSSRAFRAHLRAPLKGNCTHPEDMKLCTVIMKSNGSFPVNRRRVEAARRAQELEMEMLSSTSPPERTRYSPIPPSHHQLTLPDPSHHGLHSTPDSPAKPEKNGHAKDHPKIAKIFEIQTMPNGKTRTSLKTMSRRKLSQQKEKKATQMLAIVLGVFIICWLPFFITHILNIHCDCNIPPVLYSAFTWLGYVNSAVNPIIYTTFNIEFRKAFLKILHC
Description: (§1) Compounds of the invention were incubated with 0.16 nM [^3H]Spiperone for 120 min at 25° C. Non-specific binding was estimated in the presence of 10 μM Haloperidol. Receptor proteins were filtered and washed, the filters were then counted to determine [^3H]Spiperone specifically bound. Compounds were screened at 1 μM or lower, using 1% DMSO as vehicle. Biochemical assay results are presented as the percent inhibition of specific binding in Table 3.

[4] = target: T2, human recombinant serotonin (5-Hydroxytryptamine) 5-HT2A receptor (Homo sapiens, UniProt P28223); test: Serotonin 5-HT2A radioligand binding assay ([3H]Ketanserin); settings: compound at 1 μM; 0.5 nM [3H]Ketanserin; CHO-K1 cells; read-out: Percent Inhibition of ligand binding, Serotonin (1 μM) 5-HT2A
T2 construct: expressed in transfected cells; host or cells: Chinese hamster ovary (CHO-K1) cells
T2 sequence (P28223 whole entry): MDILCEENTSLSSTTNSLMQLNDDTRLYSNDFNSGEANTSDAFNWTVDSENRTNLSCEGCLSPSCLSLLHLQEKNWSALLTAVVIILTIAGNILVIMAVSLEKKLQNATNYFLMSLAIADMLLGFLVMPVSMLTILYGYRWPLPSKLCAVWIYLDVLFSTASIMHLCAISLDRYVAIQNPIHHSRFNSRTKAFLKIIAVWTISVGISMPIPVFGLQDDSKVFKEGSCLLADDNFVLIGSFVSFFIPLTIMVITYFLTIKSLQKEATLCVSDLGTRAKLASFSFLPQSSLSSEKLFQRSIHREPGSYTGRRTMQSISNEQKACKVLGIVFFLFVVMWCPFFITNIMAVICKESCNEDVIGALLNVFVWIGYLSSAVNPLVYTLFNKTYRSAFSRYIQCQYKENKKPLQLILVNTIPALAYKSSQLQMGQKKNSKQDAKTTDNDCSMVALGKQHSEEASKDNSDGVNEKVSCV
Description: as §1, with “0.5” for “0.16”, “[^3H]Ketanserin” for “[^3H]Spiperone”, “60” for “120”, “1” for “10”, “Mianserin.” for “Haloperidol.”, “4.” for “3.”

[5] = target: T3, human recombinant serotonin (5-Hydroxytryptamine) 5-HT2C receptor (Homo sapiens, UniProt P28335); test: Serotonin 5-HT2C radioligand binding assay ([3H]Mesulergine); settings: compound at 1 μM; 1 nM [3H]Mesulergine; CHO-K1 cells; read-out: Percent Inhibition of ligand binding, Serotonin (1 μM) 5-HT2C
T3 construct: expressed in transfected cells; host or cells: Chinese hamster ovary (CHO-K1) cells
T3 sequence (P28335 33-458): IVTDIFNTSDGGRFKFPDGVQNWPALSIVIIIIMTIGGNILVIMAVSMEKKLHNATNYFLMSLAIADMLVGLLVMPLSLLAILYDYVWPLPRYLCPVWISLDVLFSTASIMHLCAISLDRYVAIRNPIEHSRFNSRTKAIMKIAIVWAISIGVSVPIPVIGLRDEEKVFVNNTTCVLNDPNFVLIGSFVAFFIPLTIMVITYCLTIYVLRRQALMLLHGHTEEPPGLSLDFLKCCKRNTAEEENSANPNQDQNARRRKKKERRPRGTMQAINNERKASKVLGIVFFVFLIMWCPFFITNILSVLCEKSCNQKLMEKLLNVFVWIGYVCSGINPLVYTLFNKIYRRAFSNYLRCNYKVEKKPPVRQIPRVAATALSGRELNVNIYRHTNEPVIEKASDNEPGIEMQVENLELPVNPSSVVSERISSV
Description: as §1, with “1” for “0.16”, “[^3H]Mesulergine” for “[^3H]Spiperone”, “60” for “120”, “1” for “10”, “Mianserin.” for “Haloperidol.”, “4.” for “3.”

[6] = target: T4, human recombinant serotonin (5-Hydroxytryptamine) 5-HT6 receptor (Homo sapiens, UniProt P50406); test: Serotonin 5-HT6 radioligand binding assay ([3H]LSD); settings: compound at 1 μM, HeLa cells, read-out: Percent Inhibition of ligand binding, Serotonin (1 μM) 5-HT6
T4 construct: expressed in transfected cells; host or cells: human HeLa cells
T4 sequence (P50406 whole entry): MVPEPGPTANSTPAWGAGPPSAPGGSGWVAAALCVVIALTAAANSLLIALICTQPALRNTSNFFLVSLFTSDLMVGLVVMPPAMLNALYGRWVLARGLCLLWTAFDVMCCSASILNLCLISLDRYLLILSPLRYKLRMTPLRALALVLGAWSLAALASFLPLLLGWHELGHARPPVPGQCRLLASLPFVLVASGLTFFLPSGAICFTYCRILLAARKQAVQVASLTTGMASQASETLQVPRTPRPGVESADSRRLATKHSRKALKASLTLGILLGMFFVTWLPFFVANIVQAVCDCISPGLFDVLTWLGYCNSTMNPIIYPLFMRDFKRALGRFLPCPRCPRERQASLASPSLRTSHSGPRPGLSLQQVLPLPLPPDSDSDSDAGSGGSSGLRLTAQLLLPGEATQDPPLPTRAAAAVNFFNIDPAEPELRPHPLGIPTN
Description: (§2) Compounds of the invention were incubated with 1.5 nM [3H]Lysergic acid diethylamide (LSD) for 120 min at 37° C. […] Receptor proteins were filtered and washed, the filters were then counted to determine [3H]LSD specifically bound. Compounds were screened at 1 μM or lower, using 1% DMSO as vehicle. Biochemical assay results are presented as the percent inhibition of specific binding in Table 4.

[7] = target: human recombinant serotonin (5-Hydroxytryptamine) 5-HT7 receptor (Homo sapiens, UniProt P34969); test: Serotonin 5-HT7 radioligand binding assay ([3H]LSD); settings: compound at 1 μM; 5.5 nM [3H]LSD; CHO cells; read-out: Percent Inhibition of ligand binding, Serotonin (1 μM) 5-HT7
Chain of human recombinant serotonin (5-Hydroxytryptamine) 5-HT7 receptor (P34969 whole entry): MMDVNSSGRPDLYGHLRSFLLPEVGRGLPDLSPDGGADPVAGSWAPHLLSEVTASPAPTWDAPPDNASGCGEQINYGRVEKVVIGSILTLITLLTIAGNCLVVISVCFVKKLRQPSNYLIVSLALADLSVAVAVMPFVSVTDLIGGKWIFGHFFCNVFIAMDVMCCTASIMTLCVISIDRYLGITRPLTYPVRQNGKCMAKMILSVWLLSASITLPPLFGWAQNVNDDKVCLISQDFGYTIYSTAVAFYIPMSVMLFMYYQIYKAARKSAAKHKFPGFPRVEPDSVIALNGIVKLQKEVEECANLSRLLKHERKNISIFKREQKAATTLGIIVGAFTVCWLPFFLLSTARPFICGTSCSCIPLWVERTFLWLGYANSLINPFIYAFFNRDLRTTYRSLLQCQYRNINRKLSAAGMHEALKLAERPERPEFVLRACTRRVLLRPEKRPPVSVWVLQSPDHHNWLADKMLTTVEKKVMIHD
Description: as §2, with “of” for “of the”, “5.5” for “1.5”, “[^3H] Lysergic” for “[3H]Lysergic”, “2 h” for “120 min”, “25°” for “37°”, “[^3H]LSD” for “[3H]LSD”

Chain of human recombinant histamine H1 receptor (P35367 whole entry): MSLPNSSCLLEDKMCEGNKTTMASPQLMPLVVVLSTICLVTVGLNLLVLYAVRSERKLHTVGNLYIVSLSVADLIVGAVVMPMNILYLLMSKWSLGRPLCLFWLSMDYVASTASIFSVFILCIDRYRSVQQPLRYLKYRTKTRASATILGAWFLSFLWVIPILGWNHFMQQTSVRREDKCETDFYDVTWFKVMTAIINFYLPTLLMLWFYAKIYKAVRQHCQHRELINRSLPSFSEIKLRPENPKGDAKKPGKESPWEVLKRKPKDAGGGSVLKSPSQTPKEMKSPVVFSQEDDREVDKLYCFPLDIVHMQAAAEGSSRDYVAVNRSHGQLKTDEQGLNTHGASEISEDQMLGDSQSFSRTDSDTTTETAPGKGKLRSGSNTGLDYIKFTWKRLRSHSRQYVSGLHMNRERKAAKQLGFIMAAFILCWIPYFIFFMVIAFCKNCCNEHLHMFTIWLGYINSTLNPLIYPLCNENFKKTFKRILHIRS

In the case of `Cc1ccc2c(c1)c1c(n2CCc2ccc(C)nc2)CCN(CCCCO)C1` [Compound 1-43, 4-(8-methyl-5-(2-(6-methylpyridin-3-yl)ethyl)-3,4-dihydro-1H-pyrido[4,3-b]indol-2(5H)-yl)butan-1-ol], the inhibition at 1 µM [1] is reported as 97%, the inhibition at 1 µM [2] is reported as 21% and the inhibition at 1 µM [3] is reported as 10%. For the same molecule, the inhibition at 1 µM [4] was 47%, the inhibition at 1 µM [5] was 49% and the inhibition at 1 µM [6] was 22%. It also gave an inhibition at 1 µM [7] of 66%.
